According to ChEMBL document CHEMBL4414648, “Novel Benzohydroxamate-Based Potent and Selective Histone Deacetylase 6 (HDAC6) Inhibitors Bearing a Pentaheterocyclic Scaffold: Design, Synthesis, and Biological Evaluation” (J Med Chem, 2019):
Activity calls are given as the source filed them. No cut-off for these calls is given here.

What was measured:
[1] = Total clearance in CD-1 mouse at […], iv measured within 6 hrs by LC-MS/MS analysis; assay type: ADME, organism-based; details: in vivo
[2] = Toxicity in ip dosed C57BL/6 mouse administered for 5 days/week for two cycles; assay type: organism-based; details: in vivo
[3] = Selectivity ratio of IC50 for C-terminal His-tagged human HDAC8 expressed in baculovirus infected sf9 insect cells to IC50 for human N-terminal GST-tagged HDAC6 expressed in baculovirus infected sf9 insect cells
[4] = Stability in human liver S9 fraction assessed as parent compound remaining at 5 uM after 90 mins in presence of NADPH by LC-MS/MS analysis; assay type: ADME, subcellular; details: read-out: Stability
[5] = Toxicity in C57BL/6 mouse assessed as effect on WBC level at 10 mg/kg, ip administered for 5 days/week for two cycles and measured 60 mins post last dose by beckman coulter counting method relative to control; assay type: organism-based; details: in vivo, 1 h
Mus musculus [6] = experiment: In vivo inhibition of HDAC6 in C57BL/6 mouse assessed as increase in acetylated tubulin level in spleen cytosolic protein extract at 30 mg/kg, ip measured after 60 mins by ELISA relative to control; assay type: functional
[7] = Selectivity ratio of IC50 for N-terminal His-tagged human HDAC11 expressed in baculovirus expression system to IC50 for human N-terminal GST-tagged HDAC6 expressed in baculovirus infected sf9 insect cells
[8] = Toxicity in C57BL/6 mouse assessed as induction of leukopenia up to 50 mg/kg, ip administered for 5 days/week for two cycles; assay type: organism-based; details: in vivo, 120 h
[9] = molecular target: T1, Protein deacetylase HDAC6 (Homo sapiens) (UniProt Q9UBN7); experiment: Inhibition of HDAC6 in HEK293 cells harboring human Foxp3 assessed as induction of Foxp3 hyperacetylation in whole cell lysates at 500 nM incubated for 6 hrs by SDS-PAGE based Western blot analysis; assay type: subcellular; details: Lysate
T1 sequence (whole entry): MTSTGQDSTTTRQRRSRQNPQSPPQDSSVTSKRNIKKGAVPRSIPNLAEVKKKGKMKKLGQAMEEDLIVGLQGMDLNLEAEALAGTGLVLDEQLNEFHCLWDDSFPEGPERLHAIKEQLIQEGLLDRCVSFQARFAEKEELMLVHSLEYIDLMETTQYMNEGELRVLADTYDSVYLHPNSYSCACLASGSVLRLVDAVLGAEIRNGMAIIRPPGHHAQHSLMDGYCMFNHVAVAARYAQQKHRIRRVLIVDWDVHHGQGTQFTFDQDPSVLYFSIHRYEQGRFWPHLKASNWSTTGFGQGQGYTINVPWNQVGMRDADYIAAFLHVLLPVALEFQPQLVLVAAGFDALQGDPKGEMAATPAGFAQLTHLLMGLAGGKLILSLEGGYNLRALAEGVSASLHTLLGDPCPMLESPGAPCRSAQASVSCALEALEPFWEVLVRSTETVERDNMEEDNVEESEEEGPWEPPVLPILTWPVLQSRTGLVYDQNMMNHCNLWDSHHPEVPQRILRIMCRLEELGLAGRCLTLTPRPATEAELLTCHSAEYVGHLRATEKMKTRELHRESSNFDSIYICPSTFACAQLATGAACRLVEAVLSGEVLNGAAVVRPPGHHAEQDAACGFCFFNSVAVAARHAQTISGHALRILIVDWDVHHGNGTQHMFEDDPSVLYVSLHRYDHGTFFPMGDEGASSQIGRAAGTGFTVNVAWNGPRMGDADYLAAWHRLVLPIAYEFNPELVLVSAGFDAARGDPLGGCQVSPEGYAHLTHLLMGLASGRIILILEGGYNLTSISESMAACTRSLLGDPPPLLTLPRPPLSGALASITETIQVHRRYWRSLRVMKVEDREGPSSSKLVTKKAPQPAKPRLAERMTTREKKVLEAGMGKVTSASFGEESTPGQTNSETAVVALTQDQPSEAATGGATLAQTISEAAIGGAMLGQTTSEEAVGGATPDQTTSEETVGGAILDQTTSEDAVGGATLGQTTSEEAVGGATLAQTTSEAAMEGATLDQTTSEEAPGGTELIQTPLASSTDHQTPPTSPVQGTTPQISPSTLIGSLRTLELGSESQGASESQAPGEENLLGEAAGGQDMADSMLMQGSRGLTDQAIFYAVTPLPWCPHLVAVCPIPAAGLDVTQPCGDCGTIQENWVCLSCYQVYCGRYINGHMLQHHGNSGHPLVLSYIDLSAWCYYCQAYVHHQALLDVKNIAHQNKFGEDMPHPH

[10] = Stability in rat liver S9 fraction assessed as parent compound remaining at 5 uM after 90 mins in presence of NADPH by LC-MS/MS analysis; assay type: ADME, subcellular; details: read-out: Stability
[11] = Apparent volume of distribution at steady state in CD-1 mouse at […], iv measured within 6 hrs by LC-MS/MS analysis; assay type: ADME, organism-based; details: in vivo, read-out: Vdss(app)
[12] = Toxicity in C57BL/6 mouse assessed as effect on social behavior up to 50 mg/kg, ip administered for 5 days/week for two cycles; assay type: organism-based; details: in vivo, 120 h
Mus musculus [13] = experiment: In vivo inhibition of HDAC in C57BL/6 mouse assessed as increase in acetylated-histone H3 level in spleen nuclear protein extracts at 30 mg/kg, ip measured after 60 mins by sandwich ELISA relative to control; assay type: organism-based; details: 1 h
[14] = Toxicity in C57BL/6 mouse assessed as effect on platelet level at 10 mg/kg, ip administered for 5 days/week for two cycles and measured 60 mins post last dose by cell counter method relative to control; assay type: organism-based; details: in vivo, 1 h
[15] = Total AUC in CD-1 mouse at 5.2 mg/kg, po measured within 6 hrs by LC-MS/MS analysis; assay type: ADME, organism-based; set-up: dose 5.2 mg/kg, route oral, time AUCmax; details: in vivo
[16] = Toxicity in C57BL/6 mouse assessed as effect on platelet level at 30 mg/kg, ip administered for 5 days/week for two cycles and measured 60 mins post last dose by cell counter method relative to control; assay type: organism-based; details: in vivo, 1 h
[17] = Selectivity ratio of IC50 for C-terminal His-tagged human HDAC9 (604 to 1066 residues) expressed in baculovirus infected sf9 insect cells to IC50 for human N-terminal GST-tagged HDAC6 expressed in baculovirus infected sf9 insect cells
[18] = Stability in rat plasma assessed as parent compound remaining at 100 uM after 4 hrs by LC-MS/MS analysis; assay type: ADME, cell-free; details: read-out: Stability
[19] = Toxicity in C57BL/6 mouse assessed as inactivity/hyperactivity up to 50 mg/kg, ip administered for 5 days/week for two cycles and measured daily starting from day 1; assay type: organism-based; details: in vivo, 120 h
[20] = Toxicity in C57BL/6 mouse assessed as effect on body weight at 10 mg/kg, ip administered for 5 days/week for two cycles and measured every other day relative to control; assay type: organism-based; details: in vivo, 120 h

Compound: Cn1c(Sc2ccc(C(=O)NO)cc2)nnc1-c1cccs1
- clearance at 6 h [1]: 182 mL/min/kg
- MTD at 120 h [2]: < 30 mg/kg
- Ratio IC50 [3]: 62
- remaining at […], 5 µM [4]: 95%
- Activity [5]: 1%
- fold change (FC) (Mus musculus [6]): 10
- Ratio IC50 [7]: 119
- Activity [8]: Toxic
- inhibition [9]: Active
- remaining at […], 5 µM [10]: 82%
- Vd at 6 h [11]: 5.4 L/kg
- Activity [12]: Non-Toxic
- fold change (FC) (Mus musculus [13]): 3
- Activity [14]: -11%
- AUC at 6 h [15]: 123 ng·h/mL
- Activity [16]: -2%
- Ratio IC50 [17]: 132
- remaining at 4 h, 100 µM [18]: 86%
- Activity [19]: Non-Toxic
- Activity [20]: 2.8%
